Several values for one entry are separate records, joined by “and”; a condition that tells them apart may be missing. Equal values may be shown once. Where a name gives a salt, the structure may show the parent alone.
Experiments:
rat = test: animal or person; assay type: in vivo; conditions: for ED50: Rattus norvegicus, 0.25 h, read-out: ED50 (95% CI) second pharmacologically active ingredient
male Sprague-Dawley rats = conditions: rat, in vivo

SMILES	ED50 (rat; ip) [mg/kg]	timepoint of peak effect (rat; rat, in vivo) [min p. appl.]	ED50 (95% CI) second pharmacologically active ingredient (rat; rat, in vivo, ip)	% MPE (Maximum possible effect) 60 min. (male Sprague-Dawley rats) [% MPE]	% MPE (Maximum possible effect) 180 min. (male Sprague-Dawley rats) [% MPE]	% MPE (Maximum possible effect) 30 min. (male Sprague-Dawley rats; dihydrochloride)
CC[C@@H](C(N)=O)N1CCCC1=O [Levetiracetam, levetiracetam]	986	15				
NC(=O)N1c2ccccc2C=Cc2ccccc21 [carbamazepine]	30	15				
COC[C@@H](NC(C)=O)C(=O)NCc1ccccc1 [lacosamide]	35.3	15				
Nc1nnc(-c2cccc(Cl)c2Cl)c(N)n1 [lamotrigine]	30	15	35253 μg/kg and 35253 (38082-32740) μg/kg			
CCOC(=O)Nc1ccc(NCc2ccc(F)cc2)cc1N [retigabine dihydrochloride]	5.09	15		−2.0 ± 7.9	−2.8 ± 8.0	23.1 % MPE and 23.1 ± 5.0 % MPE

— patent US20130317009A1 (priority 2012, published 2013)
